Source: patent EP0238198A2, “Method of modifying the lipid structure function and expression of cell membranes and pharmaceutical compositions for use therein” (Habib, Nagy Adly, priority 1986, dated 1987)
“Also recorded” adds a separate entry of the source.

What was measured:
malignant cells = assay: tumour development in animals implanted with malignant cells; type: in vivo
[1] = system: three cancer cell lines from bladder, testis and hepatoma (liver cancer); assay: clonogenic assay with three cancer cell lines; type: cell-based; design: inhibition of cell division: dose or concentration left out as unconfirmed
Description: In vitro studies have been conducted using a clonogenic assay utilising three cancer cell lines from bladder, testis and hepatoma (liver cancer), incubating the cells for two weeks with saturated fatty acids. The control cells were incubated without any addition. The control cells grew during this time period and formed multiple colonies, as was expected.

[2] = system: Primary rat fibroblasts (from alveolar tissue); assay: colony inhibition test (clonogenic assay); type: cell-based; conditions: for Mean no colonies ± SE: 5 days, medium control 55.0±4.6
Description: (§1) Cells from rat mammary carcinoma (Sp 22), primary rat fibroblasts (from alveolar tissue) and four rat hepatoma cell lines (D23, D261, D262A and D262B) were studied.
(§2) The method used for rat cells was as follows: 200 cells were plated per dish in 1 ml 'Eagles' methionine enriched medium (MEM) + 10% newborn calf serum (NBCS) in 30 mm culture dishes and incubated for four hours at 37°C. […] Dilutions containing 20 µg/ml, […], 200 ng/ml and 2 ng/ml were prepared, 1 ml of each dilution was added to four dishes of cells, the final concentration being half the concentration of the material added. […] To control dishes 1 ml of MEM + NBCS was added, or 1 ml of MEM + NBCS + 1% ethanol. The dishes were incubated for 5 days. Medium was then removed, and the cell colonies were rinsed with 0.9% W/V NaCl solution and fixed for 15 minutes with methanol. Cell colonies were stained with 1% aqueous crystal violet and the dishes were allowed to dry.

D261 Rat hepatoma = assay: tumour cell colony inhibition test (clonogenic assay); type: cell-based; conditions: for Mean no colonies ± SE: 5 days, medium control 33.0±5.1
Description: as §1
as §2, with “37°C. All became firmly adherent during this initial incubation.” for “37°C.”

D262B Rat hepatoma = assay: as above; type: cell-based; conditions: for Mean no colonies ± SE: 5 days, medium control 37.0± 4.0
Description: as §1
as §2, with “37°C. All became firmly adherent during this initial incubation.” for “37°C.”

[3] = system: Sp22 Rat mammary carcinoma; assay: as above; type: cell-based; conditions: for Mean no colonies ± SE: 5 days, medium control 61.0±6
Description: as §1
as §2, with “37°C. All became firmly adherent during this initial incubation.” for “37°C.”

D262A Rat hepatoma = assay: as above; type: cell-based; design: inhibition of colony formation: dose or concentration left out as unconfirmed; conditions: for Mean no colonies ± SE: 5 days, medium control 245.0±11.9
Description: as §1
as §2, with “37°C. All became firmly adherent during this initial incubation.” for “37°C.”

[4] = system: 833K (non-seminomatous testicular germ cell tumour); assay: as above; type: cell-based, human
Description: as §1
(§3) The human tumour cell lines were investigated as follows: 500 exponentially-growing RTl12 (transitional cell carcinoma of the bladder) cells or two hundred 833K (non-seminomatous testicuLar.germ cell tumour) cells were plated in 5 cm dishes in RPMI1640 medium supplemented with 5% foetal calf serum and 2 mM 1-glutamine. […] Following a further 14 days incubation colonies were fixed, stained and counted. Colony-forming efficiency of the treated cells was expressed as a proportion of that in the controls. The experiments were repeated three times to permit statistical analysis.

[5] = system: RT112 (transitional cell carcinoma of the bladder); assay: as above; type: cell-based, human
Description: as §1, §3

[6] = system: human embryonic lung fibroblasts; assay: cell growth / cytotoxicity in the HSV2 host cell cultures (cell counting); type: cell-based; conditions: stearic acid 100 micromolar
[7] = Rattus norvegicus, Fibroblast, 120 h, read-out: % colony formation relative to medium control
[8] = Rattus norvegicus, 120 h, read-out: % colony formation relative to medium control
[9] = Homo sapiens, 833K, 336 h, read-out: Colony-forming ability (± standard error)
[10] = summary of Table 3, dose-related response
[11] = Homo sapiens, RT-112, 336 h, read-out: Colony-forming ability (± standard error)

`CCCCCCCCCCCCCCCCCC(=O)O` [stearic acid, octadecanoic acid] was tested. Which development of tumours (malignant cells) did it give?
The development of tumours was “inhibits the development of tumours”.

What about the “cell division (colony formation)” value ([1]; incubation for two weeks, inhibition related to dose) of the same molecule?
Its value is “failed to divide”.

What about the “inhibition of cell division” value ([1]; two weeks) of the same molecule?
Its value is “complete inhibition of cell division”.

And the activity at 0.001 µg/mL [2, 7]?
Its activity at 0.001 µg/mL is 90%.

And the activity at 0.01 µg/mL [2, 7]?
The activity at 0.01 µg/mL was 108%.

What about the activity at 0.1 µg/mL [2, 7] of the same molecule?
The activity at 0.1 µg/mL was 85.8%.

And the activity at 1 µg/mL [2, 7]?
Its activity at 1 µg/mL is 88.2%.

And the activity at 10 µg/mL [2, 7]?
The activity at 10 µg/mL was 96.5%.

What about the activity at 50 µg/mL [2, 7] of the same molecule?
Its activity at 50 µg/mL is 86.4%.

What about the “Mean no colonies ± SE” value ([2]; stearic acid 1ng/ml) of the same molecule?
Its value is 49.5±9.5.

What about the “Mean no colonies ± SE” value ([2]; stearic acid 100 ng/ml) of the same molecule?
Its value is 47.2±9.4.

And the “Mean no colonies ± SE” value ([2]; stearic acid 1µg/ml)?
The value was 48.5±9.2.

And the “Mean no colonies ± SE” value ([2]; stearic acid 10 µg/ml)?
Its value is 52.0±7.7.

What about the “Mean no colonies ± SE” value ([2]; stearic acid 50 µg/ml) of the same molecule?
Its value is 47.5±6.0.

And the “inhibition of colony development” value ([2]; summary of Table 2)?
The value was “failed to inhibit”.

And the activity at 1 µg/mL (D261 Rat hepatoma; [8])?
Its activity at 1 µg/mL is 64.5%.

And the activity at 10 µg/mL (D261 Rat hepatoma; [8])?
Its activity at 10 µg/mL is 54.5%.

What about the activity at 50 µg/mL (D261 Rat hepatoma; [8]) of the same molecule?
Its activity at 50 µg/mL is 18.1%.

What about the “inhibition of colony formation” value (D261 Rat hepatoma; dose of 10 µg/ml) of the same molecule?
The value was “significant inhibition of colony formation”.

And the “Mean no colonies ± SE” value (D261 Rat hepatoma; stearic acid 1μg/ml)?
The value was 21.0±3.0.

And the “Mean no colonies ± SE” value (D261 Rat hepatoma; stearic acid 10 μg/ml)?
The value was 18.0±1.5.

And the “Mean no colonies ± SE” value (D261 Rat hepatoma; stearic acid 50 μg/ml)?
The value was 6.0±3.0.

And the activity at 0.1 µg/mL (D262B Rat hepatoma; [8])?
The activity at 0.1 µg/mL was 111%.

And the activity at 1 µg/mL (D262B Rat hepatoma; [8])?
Its activity at 1 µg/mL is 83.8%.

What about the activity at 10 µg/mL (D262B Rat hepatoma; [8]) of the same molecule?
Its activity at 10 µg/mL is 67.6%.

And the activity at 50 µg/mL (D262B Rat hepatoma; [8])?
Its activity at 50 µg/mL is 48.6%.

And the “inhibition of colony formation” value (D262B Rat hepatoma; dose of 10 µg/ml)?
Its value is “significant inhibition of colony formation”.

And the “Mean no colonies ± SE” value (D262B Rat hepatoma; stearic acid 100 ng/ml)?
The value was 41.0± 1.8.

What about the “Mean no colonies ± SE” value (D262B Rat hepatoma; stearic acid 1μg/ml) of the same molecule?
Its value is 31.0± 5.8.

What about the “Mean no colonies ± SE” value (D262B Rat hepatoma; stearic acid 10 μg/ml) of the same molecule?
The value was 25.0± 2.8.

What about the “Mean no colonies ± SE” value (D262B Rat hepatoma; stearic acid 50 μg/ml) of the same molecule?
Its value is 18.0± 4.5.

What about the activity at 0.001 µg/mL [3, 8] of the same molecule?
The activity at 0.001 µg/mL was 83%.

What about the activity at 0.01 µg/mL [3, 8] of the same molecule?
Its activity at 0.01 µg/mL is 91%.

What about the activity at 0.1 µg/mL [3, 8] of the same molecule?
Its activity at 0.1 µg/mL is 86%.

And the activity at 1 µg/mL [3, 8]?
Its activity at 1 µg/mL is 93%.

And the activity at 10 µg/mL [3, 8]?
The activity at 10 µg/mL was 96%.

What about the activity at 50 µg/mL [3, 8] of the same molecule?
The activity at 50 µg/mL was 84%.

And the “Mean no colonies ± SE” value ([3]; stearic acid 1ng/ml)?
Its value is 54.0±10.

And the “Mean no colonies ± SE” value ([3]; stearic acid 10 ng/ml)?
The value was 55.7±3.

And the “Mean no colonies ± SE” value ([3]; stearic acid 100 ng/ml)?
The value was 52.5±6.

And the “Mean no colonies ± SE” value ([3]; stearic acid 1µg/ml)?
Its value is 56.7±3.

What about the “Mean no colonies ± SE” value ([3]; stearic acid 10 µg/ml) of the same molecule?
The value was 58.7±1.

And the “Mean no colonies ± SE” value ([3]; stearic acid 50 µg/ml)?
Its value is 51.2±6.

And the “inhibition of colony development” value ([3]; summary of Table 2)?
Its value is “failed to inhibit”.

And the “inhibition of colony formation” value (D262A Rat hepatoma)?
Its value is “significant inhibition of colony formation”.

What about the activity at 0.01 µg/mL (D262A Rat hepatoma; [8]) of the same molecule?
The activity at 0.01 µg/mL was 88%.

What about the activity at 0.1 µg/mL (D262A Rat hepatoma; [8]) of the same molecule?
Its activity at 0.1 µg/mL is 101%.

What about the activity at 1 µg/mL (D262A Rat hepatoma; [8]) of the same molecule?
Its activity at 1 µg/mL is 83.2%.

And the activity at 10 µg/mL (D262A Rat hepatoma; [8])?
The activity at 10 µg/mL was 74.7%.

And the activity at 50 µg/mL (D262A Rat hepatoma; [8])?
The activity at 50 µg/mL was 32.4%.

What about the “Mean no colonies ± SE” value (D262A Rat hepatoma; stearic acid 10ng/ml) of the same molecule?
The value was 216.0± 8.8.

And the “Mean no colonies ± SE” value (D262A Rat hepatoma; stearic acid 100 ng/ml)?
The value was 247.8± 8.3.

What about the “Mean no colonies ± SE” value (D262A Rat hepatoma; stearic acid 1μg/ml) of the same molecule?
The value was 203.8±18.1.

What about the “Mean no colonies ± SE” value (D262A Rat hepatoma; stearic acid 10 μg/ml) of the same molecule?
Its value is 190.3±13.6.

And the “Mean no colonies ± SE” value (D262A Rat hepatoma; stearic acid 50 μg/ml)?
Its value is 79.3± 7.1.

What about the activity at 1 µg/mL [4, 9] of the same molecule?
The activity at 1 µg/mL was 81.5%.

What about the activity at 2 µg/mL [4, 9] of the same molecule?
The activity at 2 µg/mL was 70.4%.

What about the activity at 4 µg/mL [4, 9] of the same molecule?
Its activity at 4 µg/mL is 27.5%.

What about the activity at 6 µg/mL [4, 9] of the same molecule?
Its activity at 6 µg/mL is 0.9%.

And the activity at 8 µg/mL [4, 9]?
Its activity at 8 µg/mL is 0%.

And the activity at 10 µg/mL [4, 9]?
Its activity at 10 µg/mL is 0%.

And the “inhibition of colony formation” value [4, 10]?
The value was “inhibited colony formation”.

And the activity at 1 µg/mL [5, 11]?
The activity at 1 µg/mL was 92%.

What about the activity at 2 µg/mL [5, 11] of the same molecule?
The activity at 2 µg/mL was 86%.

And the activity at 4 µg/mL [5, 11]?
Its activity at 4 µg/mL is 45%.

And the activity at 6 µg/mL [5, 11]?
Its activity at 6 µg/mL is 4.6%.

And the activity at 8 µg/mL [5, 11]?
Its activity at 8 µg/mL is 0.3%.

What about the activity at 10 µg/mL [5, 11] of the same molecule?
Its activity at 10 µg/mL is 0%.

And the “inhibition of colony formation” value [5, 10]?
The value was “inhibited colony formation”.

And the “inhibition of cell division / cell growth” value [6]?
The value was “inhibits cell division; also recorded: (+) = some inhibition of cell growth at this concentration of fatty acid supplementation”.
